The subject of this assay is CEM cells HIV-1 protection, formazan growth assay. Nature of the assay: NCI AIDS Antiviral Assay. The conditions noted are these: for IC50: measured here: growth of uninfected CEM cells. The essentials: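 Human CEM cells, uninfected and HIV-1-infected, exposed to five drug concentrations; growth measured by soluble formazan assay and scored as percent protection from infection, with protecting compounds retested.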

Calls of active or inactive are those of the source.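 The calls were made as follows: active = compounds giving half or more protection of infected cells from virus-caused growth loss, again on retest; inactive = the rest.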

`CC(=O)O[C@H]1CC[C@]2(C)C3=CC[C@]4(C)[C@@H](C(C)=O)CC[C@H]4[C@@]34C=C[C@]2(C1)C1C(=O)OC(=O)C14` (stereo not given in full): the EC50 is greater than 200 µM and the IC50 was determined as 70.8 µM. On the same counts, the results for `COc1cccc2c1C(=O)c1c(O)c3c(c(O)c1C2=O)C[C@@](O)(C(C)=O)C[C@@H]3OC1CC(O)C(O)C(C)O1` (stereo not given in full) are greater than 0.2 µM and 0.0107 µM. `Cc1ccccc1-n1c2nc(=O)n(C)c(=O)c-2nc2ccccc21`: the result was inactive. Still for that read-out and setting: then `CSc1nnc(C(C#N)C#N)nn1`, with “inactive”.

For the compound `CCCCOC(=O)OC1CCC2(C)CC3C=CC2(OO3)C1(C)C` (stereo not given), the EC50 was greater than 20 µM and the IC50 amounted to 4.27 µM. With `O=C(/C=C/c1ccc(OCCCOc2ccc(/C=C/C(=O)c3ccccc3)cc2)cc1)c1ccccc1`, the EC50 was greater than 10.7 µM and the IC50 was greater than 10.7 µM. `S=C(N/N=C(\C(=N/NC(=S)N1CCCCC1)c1ccccn1)c1ccccn1)N1CCCCC1`: the EC50 was greater than 200 µM and the IC50 was 39.8 µM.

Regarding `Cc1ccc2c(c1)C(=O)C1(Cc3ccccc3C1=O)C2` (stereo not given), the EC50 is greater than 200 µM and the IC50 was greater than 200 µM.

As for `Cc1ccc(C2=Nc3ccccc3NC(=O)C2)cc1`, the EC50 is 20.4 µM and the concentration for half-maximal inhibition (IC50) turned out to be 75.9 µM. On the same counts, the results for `CC(=O)NC(CCCN(Cc1ccccc1)C(=O)N(C)N=O)C(=O)NCc1ccccc1` (stereo not given) are greater than 112 µM and greater than 112 µM. For `O=C(O)CCSC(=O)Nc1cccc([N+](=O)[O-])c1`, the result was inactive. On to `CN(C1=NCCO1)c1cccc2ccccc12`, for which the EC50 is greater than 200 µM and the concentration for half-maximal inhibition (IC50) turned out to be 129 µM. The like results for `CC[C@@]1(O)C(=O)OCc2c1cc1n(c2=O)Cc2cc3cc(O)ccc3nc2-1` were, in that order, greater than 37.2 µM and 0.00832 µM. Take `Cc1ccc(S(=O)(=O)/C(C#N)=C/NC(=S)Nc2ccc(S(N)(=O)=O)cc2)cc1`: the outcome was inactive. For `COc1ccc(N=NC(=O)NC(CC(C)C)C(=O)NC(CC(C)C)C(=O)O)cc1` (stereo not given), the EC50 is greater than 200 µM and the IC50 came to 7.24 µM. In the case of `CC12CCC[C@@](C)(C(=O)O)[C@H]1CCC1=CC3(CCC12)SCCS3` (stereo not given in full), the EC50 was greater than 355 µM and the 50% inhibitory concentration (IC50) worked out at 57.5 µM. On the same counts, the results for `CCOC(=O)/C(C(=S)NCc1ccccc1)=C(/N)N1CCCC1` are greater than 200 µM and greater than 200 µM. Regarding `CC(=O)OC1CSS(=O)CC1OC(C)=O` (stereo not given), the EC50 is greater than 513 µM and the half-maximal inhibitory concentration (IC50) came out at 22.9 µM. On the same counts, the results for `CCOC(=O)/C(=C\c1ccc(Br)cc1)P(=O)(OCC)OCC` are greater than 331 µM and 6.76 µM. As for `O=C1CSC2=NC3=C(COC/C3=C\c3ccc(Br)cc3)C(c3ccc(Br)cc3)N12` (stereo not given), the outcome was inactive. Same read-out and setting: the value for `COc1ccc(CCNc2ccc(NCCc3ccc(OC)c(OC)c3)c3c2C(=O)c2ccccc2C3=O)cc1OC` was “inactive”.

On to `COC(=O)C1=C2Nc3ccccc3C23CCN2C(=O)C[C@H](C1)[C@@H]23` (stereo not given in full), for which the result was inactive. On to `CSc1c(C(N)=S)c(N)nn1-c1ccccc1`, for which the EC50 is greater than 200 µM and the 50% inhibitory concentration (IC50) is 155 µM. On the same counts, the results for `COc1cc(C2C3=C(N=C4SC(C(C)=O)=C(C)N42)c2ccccc2CC3)cc(OC)c1OC` (stereo not given) are greater than 200 µM and 40.7 µM. The like results for `CC(=O)Nc1ccccc1NC1CC(C)N(c2ccccc2)N1C(C)=O` (stereo not given) were, in that order, greater than 200 µM and 32.4 µM.

Regarding `CC12CC/C(=N/NC(N)=O)C3C1CCCC32`, the outcome was inactive. Regarding `CCCCCC=C(c1cc(C)c(OC)c(Br)c1)c1cc(C)c(OC)c(Br)c1`, the EC50 is greater than 200 µM and the IC50 is 15.5 µM.

On to `C[S+](C)c1ccccc1`, for which the EC50 is greater than 1050 µM and the IC50 was determined as 457 µM. Consider `CC(N)C(=O)NC(C)C(=O)NC(C)C(=O)NC(C)C(=O)NC(C)C(=O)NC(C)C(=O)O` (stereo not given), for which the EC50 is greater than 100 µM, the result was inactive and the 50% inhibitory concentration (IC50) was greater than 100 µM.

In the case of `O=C1C[C@@]23CCC4(CC2=CCC[C@H]3O1)OCCO4`, the outcome was inactive. For the compound `Cc1cc(OCC(O)CO)ccc1-c1ccccc1` (stereo not given), the EC50 is greater than 977 µM and the concentration for half-maximal inhibition (IC50) stood at 295 µM. On to `Cc1ccc(S(=O)(=O)Nc2ccccc2NS(=O)(=O)c2ccc(C)cc2)cc1`, for which the EC50 is greater than 200 µM and the IC50 is 30.2 µM. `[N-]=[N+]=C1C(=O)NC(=O)N2C3CC(O)C(COC12)O3` (stereo not given): the EC50 is greater than 200 µM and the half-inhibitory concentration (IC50) was greater than 200 µM. For the compound `C(CCC[Te][Te]CCCCCCOC1CCCCO1)CCOC1CCCCO1` (stereo not given), the outcome was inactive. Turning to `C1Cc2nnnn2C1`, the EC50 was greater than 2290 µM and the half-maximal inhibitory concentration (IC50) is greater than 2290 µM. `NC(=O)C(=CN1C(=O)/C(=C\c2cccc(O)c2)SC1=S)C(N)=O`: the EC50 was greater than 200 µM and the IC50 was determined as 107 µM.

Turning to `CCCCCCCCCCN=Cc1c(O)c(O)c(CCC)c2cc(C)c(-c3c(C)cc4c(CCC)c(O)c(O)c(C=NCCCCCCCCCC)c4c3O)c(O)c12`, the result was inactive.

Regarding `COC(=O)C1(CC(=O)OCc2ccccc2)NCCc2c1[nH]c1ccccc21` (stereo not given), the EC50 is greater than 3.31 µM and the IC50 was greater than 3.31 µM. For the compound `COC(=O)C(c1[nH]nc2ccccc12)C(C(=O)OC)c1[nH]nc2ccccc12` (stereo not given), the result was inactive. For the compound `CC(=O)Nc1ccc(-c2nnc(SCC(=O)Nc3ccc([N+](=O)[O-])cc3)o2)cc1`, the EC50 is greater than 45.7 µM and the IC50 was 7.94 µM. The like results for `CN(C)/C=N\c1ccnc(=O)[nH]1` were, in that order, greater than 1320 µM and greater than 1320 µM. The like results for `CO/C(N)=C(\C#N)N=Cc1ccccc1` were, in that order, greater than 200 µM and 105 µM. The like results for `COc1cc2c(cc1O)C1COc3cc4c(cc3C1O2)CCC(C)(C)O4` (stereo not given) were, in that order, greater than 200 µM and 11.5 µM. With `N[C@H]1CCC[C@@H](O)C1O` (stereo not given in full), the EC50 was greater than 200 µM and the IC50 was greater than 200 µM. As to `Brc1ccc2c(c1)C1(c3cc(Br)ccc3-2)c2cc(Br)ccc2-c2ccc(Br)cc21`, the EC50 is greater than 40.7 µM and the half-maximal inhibitory concentration (IC50) was greater than 40.7 µM. Consider `CC(=O)OCC12CC(OC(C)=O)C(C)=CC1O[C@@H]1C(O)[C@@H](O)[C@@]2(C)[C@@]12CO2` (stereo not given in full), for which the EC50 is greater than 66.1 µM and the IC50 came to 0.0282 µM. With `O=C1CCc2cc3c(cc21)CC1(Cc2ccccc2C1)C3`, the EC50 was greater than 200 µM and the half-maximal inhibitory concentration (IC50) was determined as 4.57 µM. `CCOC(=O)CC(NC(=O)c1nc[nH]c1[N+](=O)[O-])C(=O)OCC` (stereo not given): the EC50 is greater than 79.4 µM and the IC50 came to 39.8 µM.

Take `c1ccc(N=C(Nc2ccccc2)N2CCCCC2)cc1`: the EC50 is greater than 200 µM and the IC50 was found to be 77.6 µM. Turning to `C=CCC1(O)CC(n2cc(C)c(=O)[nH]c2=O)OC1CO[Si](C)(C)C(C)(C)C` (stereo not given), the EC50 was greater than 200 µM and the IC50 is 91.2 µM. For `COC(=O)Cc1c2c3n(c(=O)c1-n1[nH]c(=O)n(-c4ccc(Cl)cc4)c1=O)CCN3CCC2`, the EC50 is greater than 200 µM and the IC50 was greater than 200 µM. As for `BrCc1ccc2ccc3ccc(CBr)nc3c2n1`, the EC50 was greater than 200 µM and the IC50 is 3.72 µM. The like results for `CC1(C)OCN(c2ccc(S(N)(=O)=O)cc2)Cn2c1nc1ccccc12` were, in that order, greater than 200 µM and 117 µM.

The values above are taken from PubChem BioAssay AID179 (DTP/NCI, 2004).
